What was measured:
[1] = test system: human iPS-derived cardiomyocytes; assay: Automated patch-clamp of Na+ current in human iPS-derived cardiomyocytes; type: cell-based
Experimental: The control hiPSC cell line (ITXi002-A; IRX5-Wt[16]; RRID:CVCL_B5QD) was generated from primary dermal fibroblasts and previously characterized.[17–19] hiPSCs were maintained at 37°C, 5% CO2, 21% O2 in StemMacs PSC-Brew XF human medium (Miltenyi Biotec, #130-127-865) on culture plates coated with 0.05 mg/mL Matrigel hESC-Qualified Matrix (Corning, #354277) in DMEM F12 (Gibco, #11320033). At 75% confluency, the cells were passaged using the Gentle Cell Dissociation Reagent (StemCell Technologies, #07174).
We generated right ventricular-like cardioids on 96-well low-attachment plates using the Schmidt et al. (2023) protocol.[20] At D15.5, cardioids were pooled, dissociated, and replated as a monolayer in MW12 plates (Falcon, #353047) coated with Matrigel (Corning, #354277) for automated patch-clamp, and as single cells in 35-mm Petri dishes (NUNC #055055) coated with Matrigel for manual patch-clamp. Immediately before patch-clamp recording, cardiomyocytes were single-cell dissociated using Accutase (Sigma, #A6964).
For human iPSC-derived cardiomyocytes recordings, cells were resuspended at 300 000 cells/mL in a solution composed of 50% culture media and 50% extracellular buffer containing (in mM) 140 NaCl, 4 KCl, 2 CaCl2, 1 MgCl2, 5 glucose, and 10 HEPES (pH 7.4, osmolarity 298 mOsm) supplemented with 5 µM nifedipine. Single-hole, low-resistance chips (3–5 MΩ) were used. The intracellular solution contained (in mM) 10 KCl, 110 KF, 10 NaCl, 1 MgCl2, 1 CaCl2, 10 Ethylene Glycol Tetra-acetic Acid (EGTA), and 10 HEPES (pH 7.2, osmolarity 280 mOsm). Currents were recorded and analysed as previously described for stable cell lines.

[2] = test system: human iPS-derived ventricular cardiomyocytes; type: cell-based; conditions: 0.1 nM; dynamic clamp, 1.43 Hz, 35–37°C; n = 10
isolated rat heart = assay: Ex vivo cardiac electrophysiological recordings (Langendorff, MEA); conditions: for increase in repolarization area of ventricular local field potential: mean ± SEM
Experimental: Eleven-week-old Wistar-Han rats were first heparinized (heparin sodium, 0.5 U/g i.p.) and then euthanized by i.p. injection of 140 mg/kg pentobarbital (Euthasol®). Hearts were quickly excised and immersed in a cold modified Krebs-Henseleit solution (in mM): 116 NaCl, 5 KCl, 1.1 MgSO4, 7 H2O, 0.35 NaH2PO4, 27 NaHCO3, 10 glucose, and pH 7.4. The aorta was cannulated, and the hearts were perfused on a Langendorff system with warm (36.5–37.5°C) and oxygenated (95% O2/5% CO2) Krebs-Henseleit solution supplemented with 1.8 mM CaCl2, 1 mM lactate, and 0.2 mM pyruvate (control solution) at a constant flow rate of 12 mL/min. Once connected to the Langendorff perfusion system, hearts were perfused with control solution for 10 min to stabilize their activities. Electrical activity of the upper part of the right ventricle was assessed using a 64-electrode array (0.2-mm electrode diameter; 0.36-mm interelectrode distance) connected to an EMS64-USB-1002 amplifier. Single-lead ECG was acquired to monitor global cardiac electrical activity. Data were sampled at 10 kHz per channel and acquired by EMapRecord5 (Mappinglab, Oxford, UK). Data were obtained at baseline (2 min before compound perfusion) and during AaH-II* perfusion for 10 min at various concentrations. Data were analysed using EMapScope5 (Mappinglab, Oxford, UK). Activation times were determined as the point of maximal negative slope. All activation times were related to the timing of the first detected waveform and then used to draw activation maps. An average of three complexes was used for activation time and conduction velocity analyses, while interbeat interval was measured as the average of 10 consecutive intervals. The index of inhomogeneity was calculated as previously described.[23] Arrhythmias were quantified over a period of 2 min in control and after peptide perfusion.

hNav1.4 = hNav1.4 (Homo sapiens, UniProt P35499); type: cell-based
in vivo = conditions: Wistar-Han, rat, iv
[3] = test system: adult rat ventricular cardiomyocytes; assay: Calcium imaging (SCR events) in isolated rat cardiomyocytes; type: cell-based
Experimental: Eleven-week-old Wistar Han rats were euthanized by intraperitoneal (i.p.) injection of a lethal dose of pentobarbital (140 mg/kg, Euthasol®). Subsequently, the hearts were quickly excised and rinsed in cold calcium-free Tyrode solution with the following composition (in mM): 118 NaCl, 4.17 KCl, 1.2 MgSO4, 1.2 KH2PO4, 21 NaHCO3, 11 glucose, and 5 taurine, at pH 7.4. The aorta was promptly cannulated, and the hearts were perfused in a retrograde fashion with warm (37–38°C) Tyrode containing 1.25 mM CaCl2 to flush the coronary arteries of blood and then with a Tyrode solution supplemented with 1 mg/mL collagenase type 2 (Worthington Biochemical Corp, Lakewood, NJ) and 0.2 U.mL^−1 protease type XIV (Sigma, Poole, UK) during 15–20 min. Once enzymatic digestion is completed, ventricles were shredded into small pieces with surgical scissors in 0.5 mM Ca^2+ Tyrode solution, filtered through a 200-µm mesh, and then resuspended in 1 mM Ca^2+ Tyrode solution for 1 h at RT. Isolated cardiomyocytes were incubated in the dark with Fura-2-AM calcium probe (2 µM in 20% v/v DMSO; Life Technologies) for 15 min. Cardiomyocytes were then loaded onto the IonOptix system (IonOptix Corporation, U.S.A.) and perfused with warm (37°C) Tyrode solution. Cardiomyocytes were stimulated at 0.5 Hz using a MyoPacer field stimulator (20 V, 7 ms) to achieve steady state. Fura-2 fluorescence (F) at 510 nm was used to measure cytoplasmic Ca^2+ concentration variation by exciting with UV light at 340 and 380 nm. Cells were paced for 1 to 2 min, ensuring stabilization of the signals, and the effects of the peptides were measured at the end of a 5 min application time. 30-s-long periods were used as the unit duration (representing 15 Ca^2+ transients) during control and after the perfusion of the compound to count the number of arrhythmogenic transients.

Chain of hNav1.4 (P35499 whole entry): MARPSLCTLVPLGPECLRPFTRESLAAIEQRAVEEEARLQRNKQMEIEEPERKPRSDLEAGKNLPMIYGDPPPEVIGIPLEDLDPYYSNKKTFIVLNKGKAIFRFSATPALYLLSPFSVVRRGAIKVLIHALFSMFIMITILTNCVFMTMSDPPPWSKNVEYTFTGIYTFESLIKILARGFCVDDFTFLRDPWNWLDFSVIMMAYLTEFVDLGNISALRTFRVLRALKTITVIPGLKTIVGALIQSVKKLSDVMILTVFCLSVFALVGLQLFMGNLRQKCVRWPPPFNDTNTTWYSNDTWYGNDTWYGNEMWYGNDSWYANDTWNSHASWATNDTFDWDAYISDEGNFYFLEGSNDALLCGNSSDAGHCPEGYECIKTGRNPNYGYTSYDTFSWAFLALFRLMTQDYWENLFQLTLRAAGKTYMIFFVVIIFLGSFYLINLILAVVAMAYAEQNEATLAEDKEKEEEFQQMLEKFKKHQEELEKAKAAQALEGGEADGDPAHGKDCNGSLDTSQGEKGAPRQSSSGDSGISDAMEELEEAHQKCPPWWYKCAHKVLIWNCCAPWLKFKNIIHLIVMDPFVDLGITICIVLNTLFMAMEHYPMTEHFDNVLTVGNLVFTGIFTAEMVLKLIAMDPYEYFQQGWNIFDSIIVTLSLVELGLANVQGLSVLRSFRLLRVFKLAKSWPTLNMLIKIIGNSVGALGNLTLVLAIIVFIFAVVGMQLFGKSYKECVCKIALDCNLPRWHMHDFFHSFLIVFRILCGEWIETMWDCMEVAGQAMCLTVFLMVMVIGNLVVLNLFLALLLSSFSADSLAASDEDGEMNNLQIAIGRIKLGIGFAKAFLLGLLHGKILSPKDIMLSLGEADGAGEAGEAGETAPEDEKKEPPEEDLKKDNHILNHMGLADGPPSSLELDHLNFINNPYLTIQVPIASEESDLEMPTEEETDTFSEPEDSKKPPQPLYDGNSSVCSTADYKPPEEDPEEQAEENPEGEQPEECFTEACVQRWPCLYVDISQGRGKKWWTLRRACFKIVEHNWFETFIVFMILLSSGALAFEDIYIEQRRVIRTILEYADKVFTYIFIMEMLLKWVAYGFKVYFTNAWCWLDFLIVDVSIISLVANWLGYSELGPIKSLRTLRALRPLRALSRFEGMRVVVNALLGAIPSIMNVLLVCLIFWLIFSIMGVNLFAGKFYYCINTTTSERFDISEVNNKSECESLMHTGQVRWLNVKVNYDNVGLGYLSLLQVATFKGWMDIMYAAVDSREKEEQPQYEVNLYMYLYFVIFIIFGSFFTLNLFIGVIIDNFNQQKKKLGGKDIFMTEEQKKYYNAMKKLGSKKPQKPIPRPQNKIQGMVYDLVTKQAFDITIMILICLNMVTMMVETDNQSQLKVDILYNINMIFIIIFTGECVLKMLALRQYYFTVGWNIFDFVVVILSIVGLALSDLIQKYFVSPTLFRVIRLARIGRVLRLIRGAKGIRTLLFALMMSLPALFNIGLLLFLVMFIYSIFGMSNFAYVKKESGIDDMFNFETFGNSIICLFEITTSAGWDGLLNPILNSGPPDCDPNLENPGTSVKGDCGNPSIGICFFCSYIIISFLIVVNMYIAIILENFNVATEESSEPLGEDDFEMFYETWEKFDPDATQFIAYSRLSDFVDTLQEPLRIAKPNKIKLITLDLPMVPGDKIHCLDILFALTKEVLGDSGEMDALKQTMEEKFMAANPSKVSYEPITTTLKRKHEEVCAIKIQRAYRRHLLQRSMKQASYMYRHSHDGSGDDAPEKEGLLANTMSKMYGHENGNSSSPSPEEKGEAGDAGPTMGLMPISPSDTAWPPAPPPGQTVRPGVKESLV

Compound: CC[C@H](C)[C@H](NC(=O)[C@H](Cc1ccc(O)cc1)NC(=O)CNC(=O)[C@H](CC(=O)O)NC(=O)[C@H](CCCCN)NC(=O)[C@@H](N)C(C)C)C(=O)N[C@H](C(=O)N[C@@H](CC(=O)O)C(=O)N[C@@H](CC(=O)O)C(=O)N[C@H](C(=O)N[C@@H](CC(N)=O)C(=O)N[C@H]1CSSC[C@@H](C(=O)N[C@@H](Cc2c[nH]cn2)C(N)=O)NC(=O)[C@H](CCCCN)NC(=O)CNC(=O)[C@@H]2CCCN2C(=O)CNC(=O)[C@H](CCCCN)NC(=O)[C@H]([C@@H](C)O)NC(=O)[C@H](CCCNC(=N)N)NC(=O)[C@H](C(C)C)NC(=O)[C@H](Cc2c[nH]cn2)NC(=O)[C@H](CC(=O)O)NC(=O)[C@@H]2CCCN2C(=O)[C@H](CC(C)C)NC(=O)[C@H](CCCCN)NC(=O)[C@H](Cc2ccc(O)cc2)NC(=O)[C@@H]2CSSC[C@@H]3NC(=O)[C@H](CCC(=O)O)NC(=O)[C@H](CCC(=O)O)NC(=O)[C@H](CC(N)=O)NC(=O)[C@@H]4CSSC[C@H](NC(=O)[C@H](C)NC(=O)[C@H](CC(N)=O)NC(=O)CNC(=O)[C@H](Cc5ccc(O)cc5)NC(=O)[C@@H]5CCCN5C(=O)[C@H](CO)NC(=O)[C@H](C)NC(=O)[C@H](Cc5c[nH]c6ccccc56)NC(=O)[C@H](CCC(N)=O)NC(=O)[C@H](CSSC[C@H](NC(=O)[C@H](Cc5ccccc5)NC(=O)[C@H](Cc5ccc(O)cc5)NC(=O)[C@H]([C@@H](C)O)NC1=O)C(=O)NCC(=O)N[C@@H](CCCNC(=N)N)C(=O)N[C@@H](CC(N)=O)C(=O)N[C@@H](C)C(=O)N[C@@H](Cc1ccc(O)cc1)C(=O)N4)NC(=O)[C@H](Cc1ccc(O)cc1)NC(=O)CNC(=O)[C@H](CO)NC(=O)[C@H](CCC(=O)O)NC(=O)CNC(=O)[C@H](CCCCN)NC(=O)[C@H](CC(C)C)NC(=O)[C@H](CCCCN)NC(=O)[C@H]([C@@H](C)O)NC3=O)C(=O)N[C@@H](Cc1ccc(O)cc1)C(=O)N2)C(C)C)C(C)C [AaH-II*]
- INaL in human iPS-derived cardiomyocytes ([1]; 0.1 nM AaH-II*): triggered a characteristic INaL
- INaL in human iPS-derived cardiomyocytes ([1]; 10 nM AaH-II*): a greater INaL could be recorded
- AP duration APD20, APD50, APD90 [2]: increase the AP duration
- maximal diastolic potential, AP amplitude, dV/dtmax [2]: not significantly affected
- increase in repolarization area of ventricular local field potential (isolated rat heart; 0.1 nM): 40.3 ± 8.0%
- arrhythmogenic hearts (hearts with arrhythmias / hearts) (isolated rat heart; 1 nM AaH-II*): 5/7
- increase in repolarization area of ventricular local field potential (isolated rat heart; 1 nM): 140.6 ± 43.0%
- activation time (isolated rat heart; 10 nM): significantly increases activation time
- arrhythmogenic hearts (hearts with arrhythmias / hearts) (isolated rat heart; 10 nM AaH-II*): 6/7
- ventricular bradycardia (rhythm reduction) (isolated rat heart; 10 nM, MEA on right ventricle, 10 min perfusion): 1.9 fold
- cardiac conduction in the right ventricle (isolated rat heart; 0.1 and 1 nM): do not affect conduction
- ventricular interbeat interval (isolated rat heart; 0.1 and 1 nM, MEA on right ventricle, 10 min perfusion): no effect on the interbeat interval
- INaL after 1 s depolarization (hNav1.4; 10 nM): lack of effects of AaH-II* on those two parameters
- shift in voltage-dependence of activation (hNav1.4; 10 nM): lack of effects of AaH-II* on those two parameters
- maximal INaL stimulation (maximal AUC) (hNav1.4; highest effective AaH-II* concentration): six
- concentration at which INaL is triggered / becomes noticeable (hNav1.4; representative traces, test 0 mV): 0.3 nM
- level at time molar (in vivo; 3 ug/kg): < 0.1 nM
- level at time molar (in vivo; 15 ug/kg): 2.4 ± 0.4 nM
- level at time molar (in vivo; 30 ug/kg): 4.3 ± 0.6 nM
- average frequency of SCR events ([3]; 0.1 nM AaH-II*): 14 SCR/min
- cells presenting SCR events (SCR cells / cells) ([3]; 0.1 nM peptide, 0.5 Hz pacing, 37°C, 5 min application): 13 out of 23
- calcium transient amplitude and time to peak ([3]; 1 or 3 nM AaH-II*): slightly reduce the amplitude of the calcium transients and slow the time to peak

Reference: article PMC13598332, “Selective activation of tetrodotoxin-sensitive sodium channels by AaH-II drives arrhythmogenic late Na^+ current in the heart” (Europace, 2026)
